From patent US20090055945A1, “Method for Producing Nuclear-Transplanted Egg” (priority 2005, published 2009)

Columns and labels:
Type in all cases: cell-based, mouse
[1] = test system: nuclear transfer oocytes (nuclei from cumulus cells in enucleated oocytes); experiment: Expanded blastocyst formation of nuclear transfer oocytes (cumulus cell nuclei)
Description: Production of cloned mice including production of nuclear transfer embryos was carried out according to the method as described in Non-patent Document 5. Briefly, pregnant mare serum gonadotrophin (PMSG) was first administered to 8-weeks-old female B6D2F1 (C57BL/6 XDBA/2) mice (Japan SLC) for superovulation treatment. Human choriogonadotropin (hCG) was administered after 48 hours. Oocytes were collected after 16 hours. Nuclei were removed from the collected unfertilized oocytes in the presence of 5 μg/ml of cytochalasin B using a micromanipulator (enucleation).
Next, cell membranes of cumulus cells from a B6D2F1 mouse as donor somatic cells suspended in a 1.2% polyvinylpyrrolidone (PVP) solution were destroyed using an injection pipette, and the nuclei were injected into the enucleated oocytes using a micromanipulator (nuclear transfer). A piezo drive apparatus (Prime Tech) was used to generate piezo-pulses for penetration of zona pellucida or cell membranes which is required for injection of nuclei.
The thus obtained nuclear transfer oocytes were cultured in a CO2 incubator at 37° C. for 30 minutes to 1 hour. The oocytes were then transferred to an oocyte activation solution (Ca^2+-free CZB medium supplemented with 5 mM strontium chloride (SrCl2) and 5 μg/ml of cytochalasin B (Non-patent Document 10)) containing 0.5, 5, 50 or 500 nM trichostatin A (hereinafter referred to as TSA) to artificially activate the oocytes and initiate the development. Activation of oocytes was confirmed 6 hours after the initiation of activation using pronuclei formation as an index. Activated nuclear transfer oocytes were transferred to KSOM medium (Specialty Media) containing TSA at the same concentration, and cultured for further 14 hours (for 20 hours after the initiation of activation) in the medium. For a control, dimethyl sulfoxide (DMSO), which was used for dissolving TSA, was used in place of TSA to produce the same concentration.
Then, the nuclear transfer embryos at the 2-cell stage were cultured in KSOM medium without TSA until 96 hours after the initiation of activation, and development into expanded blastocysts was observed. The development into expanded blastocyst was confirmed by culturing for 96 hours after the initiation of activation and then observing under a microscope one in which the volume of embryo was increased to result in expansion of the blastocyst and thinning of zona pellucida among blastocysts having blastocoels. 80 or more embryos were examined in each of the experimental groups of the respective concentrations.
The ratio of the developed blastocysts to the number of nuclear transfer oocytes used (blastocyst formation rate (%)) was determined. The ratio of the developed expanded blastocysts to the number of oocytes that initiated cleavage (i.e., developed into the 2-cell stage) among the reconstructed nuclear transfer oocytes (blastocyst formation rate (%)) was determined.
Nuclear transfer oocytes were produced by injecting nuclei from cumulus cells into enucleated oocytes according to the method as described in Example 1, cultured in KSOM medium containing TSA at a concentration of 5 nM for various periods of time (for 0, 24, 48 or 72 hour(s) from the initiation of activation), and then cultured in KSOM medium without TSA until 96 hours after the initiation of activation. Then, development into expanded blastocysts was observed and the blastocyst formation rate was determined. […]

[2] = test system: oocytes injected with nuclear domains of round spermatids (ROSI); experiment: Paternal genome DNA methylation, spermatid injection (ROSI); conditions: 500 nM TSA
Description: (§1) The oocytes injected with the nuclear domains of round spermatids obtained by ROSI were cultured for 20 hours in the presence of 20 ng/ml of demecolcine in a medium containing 10 μM 5-azacytidine (5-aza) or 500 nM TSA as an anti-methylation agent. Similarly, injection of mature sperms was carried out (ICSI (intracytoplasmic sperm injection)). Specifically, heads of sperms were separated from the tails by applying pulses to the head-tail junctions by means of a piezo-driven pipette (PrimeTech), and injected into oocytes. The oocytes were not subjected to activation in this case.
The cultured oocytes injected with nuclei were fixed in PBS containing 4% paraformaldehyde at 4° C. overnight, washed in PBS containing 0.1% polyvinyl alcohol (PVA), and blocked in PBS containing 3% bovine serum albumin (BSA) and 0.2% Triton X-100 at 4° C. overnight. Subsequent steps were carried out at room temperature. The fixed oocytes injected with nuclei were permeabilized by treating with 0.2% Triton X-100 in PBS at room temperature. The oocytes were then treated with 2N HCl at room temperature for 50 minutes, neutralized in 100 mM Tris-HCl buffer (pH 8.0) (Non-patent Document 15), and extensively washed with PBS containing 1% BSA.
Next, incubation. with an anti-5-methylcytidine antibody (Eurogentec) in PBS containing 0.1% PVA was carried out for 2 to 3 hours. After extensively being washed, oocytes were stained with Alexa Flour-488 secondary antibody (Molecular Probes), stained with 5 μg/ml 4′,6′-diamidino-2-phenylindole (DAPI) for 30 minutes, and mounted using Vectashield (Vector Laboratory). The specimens were observed using Olympus BX51 microscope (Olympus). All images were captured with DP70 Olympus digital camera using Olympus Analysis software to apply colors to DAPI-stained DNA and merged images.
(§2) For quantitative analysis of pronuclear DNA methylation levels, fluorescence images were subjected to densitometric analysis using the program Image-J from the National Institute of Health (http://rsb.info.nih.gov/ij/). For each pronucleus, the relative intensity of methylation of the paternal genome was calculated as a percentage of the fluorescence intensity of the maternal genome. In Table 3, data with (b) and without (a) anti-methylation agent were statistically analyzed by Scheffe tests for multiple mean comparisons using the statistical program SPSS version 12.0 (SPSS Inc.). All percentile data were subjected to arcsine transformation prior to the statistical analysis.

[3] = test system: oocytes into which nuclei from ES cells (E14) were transferred; experiment: Expanded blastocyst formation, ES cells as donor cells; conditions: ES cell donor nuclei; 50 nM TSA for 20 hours; FIG. 8
Description: A procedure similar to that described in Example 1 was carried out using fibroblasts or embryonic stem cells (ES cells) as donor cells in place of cumulus cells. Fibroblasts were obtained by culturing a fragment of mouse tail (Non-patent Document 11). E14 cells were used as ES cells (Non-patent Document 12).
Oocytes into which nuclei from the donor cells were transferred were treated with TSA for 20 hours, and cultured in KSOM medium without TSA until 96 hours after the initiation of activation. Then, development into expanded blastocysts was observed and the blastocyst formation rate was determined. 30 or more embryos were examined in each of the experimental groups of the respective cells.

[4] = test system: oocytes injected with mature sperm (ICSI); experiment: Paternal genome DNA methylation, mature sperm injection (ICSI); conditions: 500 nM TSA, 20 hours
Description: as §1, with “case. […]” for “case.”
as §2, with “All percentile data were subjected to arcsine transformation prior to the statistical analysis.” left out

Compound: CC(/C=C/C(=O)NO)=C\[C@@H](C)C(=O)c1ccc(N(C)C)cc1 [TSA, trichostatin A]
- blastocyst development rate compared with the case without TSA ([1]; TSA 5 nM for 24 or 48 hours from initiation of activation, FIG. 4): increased
- blastocyst development rate among treatment periods ([1]; TSA 5 nM for 10 hours after initiation of activation, FIG. 5): highest
- increase in blastocyst development rate ([1]; TSA 5 nM for 24 hours from initiation of activation): about 4 fold
- development rate compared with the case without TSA ([1]; TSA 5 nM for 72 hours from initiation of activation): reduced
- blastocyst formation rate compared with the case without TSA ([1]; TSA 5, 50 or 500 nM, 20 hours after initiation of activation, observed at 96 hours, FIG. 2): increased
- majority of the methylation of the paternal genome, response to TSA treatment [2]: sensitive
- methylation of the maternal genome, response to TSA treatment [2]: resistant
- methylation of DNA in the pericentromeric region, response to TSA ([2]; region with high methylation of histone H3 Lys9): resistant
- Ratio of methylation level of paternal genome to maternal genome (%) ([2]; Spermatid (ROSI), 20 hours): 42.5^b %
- blastocyst development rate compared with the case without TSA [3]: higher
- Ratio of methylation level of paternal genome to maternal genome (%) [4]: 8.2^b %
